The values that follow come from patent US20210069189A1, “TREATMENT OF NEURODEGENERATIVE DISEASES” (BENEVOLENTAI BIO LIMITED, priority 2017, published 2021).

Structures are written as SMILES.

One series concerns ALS. The note with it: ALS patients; cited from earlier work.
For series [1], the system named is murine Hb9-GFP+ motor neurons co-cultured with ALS patient-derived iAstrocytes. In words: ALS patient iAstrocyte / mouse Hb9-GFP+ motor neuron co-culture, motor neuron survival. The series is classed as cell-based, human iAstrocytes. The note with it: iAstrocytes pre-treated 24 hours with various concentrations; viable motor neurons at 72 h as percentage of 24 h, normalised to DMSO control; FIG. 2. How it is done:
ALS iAstrocytes were pre-treated with various concentrations of nilotinib, bafetinib or bosutinib for 24 hours, prior to murine Hb9-GFP motor neuron seeding in co-culture. The number of viable motor neurons was then measured 24 and 72 hours after motor neuron seeding, and the percentage motor neuron survival was calculated, and then normalised to the untreated control of the respective line. *P<0.05, **P<0.01, ***P<0.001. One-way ANOVA with Dunnett's post-hoc test. Data are mean±SD. n=5-6.
This example describes the effect of nilotinib, bafetinib and bosutinib on motor neuron survival in an in vitro model of ALS. This model uses human fibroblast-derived astrocytes and mouse Hb9−GFP+ motor neurons in co-culture (Meyer et al., 2014, PNAS 111, 829-832). The fibroblasts were reprogrammed to induced neural progenitor cells (iNPCs), which were differentiated into Astrocytes. Astrocytes derived from ALS patients cause death of the wild-type Hb9−GFP+ mouse motor neurons in co-culture, a property not seen in astrocytes derived from normal (non-ALS) patients. […]
3,000 human iAstrocytes were seeded per well on fibronectin-coated 384-well plates. […] Hb9− GFP+ motor neurons were imaged after 24 and 72 hours using an INCELL analyser 2000 (GE Healthcare), and the number of viable motor neurons was counted using the INCELL analyser software (GE Healthcare).
The number of viable motor neurons (defined as GFP+ motor neurons with at least 1 axon) 25 that survived after 72 hours in co-culture was calculated as a percentage of the number of viable motor neurons after 24 hours in co-culture. […]

Series [2] relates to SOD1^G93A mouse model of ALS. The conditions noted are these: cited from earlier work.
The target of another series is P-glycoprotein (P-gp) (Homo sapiens, UniProt P08183). The note with it: cited from earlier work.
P-glycoprotein (P-gp), sequence (P08183 whole entry): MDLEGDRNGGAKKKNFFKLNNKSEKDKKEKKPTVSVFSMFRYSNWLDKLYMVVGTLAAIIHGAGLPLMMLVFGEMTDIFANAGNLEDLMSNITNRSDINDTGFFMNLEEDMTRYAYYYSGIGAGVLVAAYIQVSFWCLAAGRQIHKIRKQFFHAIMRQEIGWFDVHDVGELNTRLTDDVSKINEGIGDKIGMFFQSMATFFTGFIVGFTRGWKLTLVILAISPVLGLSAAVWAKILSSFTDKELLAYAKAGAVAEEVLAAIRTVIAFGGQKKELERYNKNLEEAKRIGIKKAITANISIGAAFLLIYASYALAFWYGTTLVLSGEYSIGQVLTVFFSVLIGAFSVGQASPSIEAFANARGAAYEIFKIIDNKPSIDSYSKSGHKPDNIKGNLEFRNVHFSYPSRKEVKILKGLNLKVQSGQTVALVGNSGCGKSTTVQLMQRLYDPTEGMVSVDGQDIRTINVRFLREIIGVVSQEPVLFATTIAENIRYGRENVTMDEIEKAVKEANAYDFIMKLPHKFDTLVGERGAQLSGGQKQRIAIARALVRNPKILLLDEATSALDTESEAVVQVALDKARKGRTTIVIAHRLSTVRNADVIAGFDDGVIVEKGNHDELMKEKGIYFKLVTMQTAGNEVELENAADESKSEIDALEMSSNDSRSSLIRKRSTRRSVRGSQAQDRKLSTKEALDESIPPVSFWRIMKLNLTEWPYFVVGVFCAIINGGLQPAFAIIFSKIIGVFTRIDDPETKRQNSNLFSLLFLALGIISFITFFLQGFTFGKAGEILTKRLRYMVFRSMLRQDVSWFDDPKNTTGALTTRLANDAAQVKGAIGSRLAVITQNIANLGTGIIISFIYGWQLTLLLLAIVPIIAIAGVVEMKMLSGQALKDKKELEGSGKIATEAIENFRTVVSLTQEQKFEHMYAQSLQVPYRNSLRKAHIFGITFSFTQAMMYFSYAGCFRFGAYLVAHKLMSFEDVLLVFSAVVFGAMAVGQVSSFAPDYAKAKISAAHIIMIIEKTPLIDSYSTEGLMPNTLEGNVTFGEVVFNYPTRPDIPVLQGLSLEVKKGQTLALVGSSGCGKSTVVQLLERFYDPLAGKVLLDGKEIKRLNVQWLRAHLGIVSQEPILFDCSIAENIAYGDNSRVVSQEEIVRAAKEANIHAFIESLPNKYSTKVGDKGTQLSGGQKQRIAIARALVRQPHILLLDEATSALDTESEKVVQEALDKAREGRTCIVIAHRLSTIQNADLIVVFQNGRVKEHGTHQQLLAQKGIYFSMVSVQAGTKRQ

Take `Nc1nc2ccc(OC(F)(F)F)cc2s1` [Riluzole]: the prolongation of life in the series with ALS is given as 2-3 months.
On to `C=CC(=O)Nc1cc2c(Nc3ccc(F)c(Cl)c3)ncnc2cc1OCCCN1CCOCC1` [canertinib], for which the motor neuron survival result in series [1] is given as “no such increase in survival”.
As to `C#Cc1cccc(Nc2ncnc3cc(OCCOC)c(OCCOC)cc23)c1` [erlotinib], in series [2], the lifespan entry is listed as “failed to extend lifespan”; the “penetration into the central nervous system” value is given as “penetrated into the central nervous system”; the “protection of motor synapses” value is “did not protect motor synapses”; the “symptom delay (disease onset and progression)” value was “modest yet statistically significant symptom delay”.
As to `Cc1ccc(NC(=O)c2ccc(CN3CCN(C)CC3)cc2)cc1Nc1nc(-c2cccnc2)cs1` [masitinib], the motor neuron survival entry in series [1] is “no such increase in survival”.
With `Cc1cn(-c2cc(NC(=O)c3ccc(C)c(Nc4nccc(-c5cccnc5)n4)c3)cc(C(F)(F)F)c2)cn1` [nilotinib], in series [1], the motor neuron survival result was “dose-dependent increase in motor neuron survival”. At P-glycoprotein (P-gp), the P-glycoprotein substrate result was “P-glycoprotein (P-gp) substrate”.
